# In patent publication US7348140B1, “Clinical indications for genotyping polymorphic variants of G-protein coupled receptors” (Acadia Pharmaceuticals, Inc., priority 2001, dated 2008):
# Where a chain is given by its changes, count along the chain named. Several values for one entry are separate records, joined by “and”; a condition that tells them apart may be missing. Equal values may be shown once. Where a name gives a salt, the structure may show the parent alone. Read-outs that look alike come from different tables or passages of the source.
# Legend:
# [1] = target: histamine H2 receptor (Arginine 215 / Lysine 231) (Homo sapiens, UniProt P25021); experiment: R-SAT functional assay, histamine H2 receptor wild type; assay type: cell-based; settings: agonists and inverse agonists; for EC50: read-out: Ave −Log EC50 (converted)
# [2] = target: serotonin 7 receptor (Leucine 421) (Homo sapiens, UniProt P34969); experiment: R-SAT functional assay, serotonin 7 receptor wild type; assay type: cell-based; settings: Leucine 421 (wild type), inverse agonists, Table 20; for EC50: read-out: Ave −Log EC50 (converted)
# [3] = target: serotonin 7 receptor L421P (Proline 421) (Homo sapiens, UniProt P34969, L421P); experiment: R-SAT functional assay, serotonin 7 receptor L421P; assay type: cell-based; settings: Table 20; for EC50: read-out: Ave −Log EC50 (converted); for FOLD: shift in functional potency, Proline 421 vs Leucine 421
# [4] = target: serotonin 1E receptor (Isoleucine 44 / Serine 262) (Homo sapiens, UniProt P28566); experiment: cell-based
# [5] = target: serotonin 1E receptor S262F (Phenylalanine 262) (Homo sapiens, UniProt P28566, S262F); experiment: cell-based
# [6] = target: serotonin 1E receptor I44T (Threonine 44) (Homo sapiens, UniProt P28566, I44T); experiment: cell-based
# [7] = target: dopamine D2 receptor (Leucine 40 / Valine 208) (Homo sapiens, UniProt P14416); experiment: R-SAT functional assay, dopamine D2 receptor wild type; assay type: cell-based
# [8] = target: T1, dopamine D2 receptor V208L (Leucine 208) (Homo sapiens, UniProt P14416, V208L); experiment: R-SAT functional assay, dopamine D2 receptor V208L; assay type: cell-based
# T1 construct: expressed in transfected cells; host or cells: NIH-3T3
# [9] = target: T2, dopamine D2 receptor L40R (Arginine 40) (Homo sapiens, UniProt P14416, L40R); experiment: R-SAT functional assay, dopamine D2 receptor L40R; assay type: cell-based
# T2 construct: expressed in transfected cells; host or cells: NIH-3T3
# [10] = target: T3, alpha 1A/C receptor G43C (Cysteine 43) (Homo sapiens, UniProt P35348, C347R/G43C/Q431E); experiment: R-SAT functional assay, alpha 1A/C receptor G43C; assay type: cell-based; settings: Table 1
# T3 construct: expressed in transfected cells; host or cells: NIH-3T3
# [11] = target: T4, alpha 1A/C receptor I200S (Serine 200) (Homo sapiens, UniProt P35348, C347R/I200S/Q431E); experiment: R-SAT functional assay, alpha 1A/C receptor I200S; assay type: cell-based; settings: Table 2; for EC50: Serine 200 (I200S), read-out: Ave −Log EC50 (converted); for FOLD: shift in functional potency, Serine 200 vs Isoleucine 200
# T4 construct: expressed in transfected cells; host or cells: NIH-3T3
# T4 sequence (P35348 1-464 I200S/C347R/Q431E): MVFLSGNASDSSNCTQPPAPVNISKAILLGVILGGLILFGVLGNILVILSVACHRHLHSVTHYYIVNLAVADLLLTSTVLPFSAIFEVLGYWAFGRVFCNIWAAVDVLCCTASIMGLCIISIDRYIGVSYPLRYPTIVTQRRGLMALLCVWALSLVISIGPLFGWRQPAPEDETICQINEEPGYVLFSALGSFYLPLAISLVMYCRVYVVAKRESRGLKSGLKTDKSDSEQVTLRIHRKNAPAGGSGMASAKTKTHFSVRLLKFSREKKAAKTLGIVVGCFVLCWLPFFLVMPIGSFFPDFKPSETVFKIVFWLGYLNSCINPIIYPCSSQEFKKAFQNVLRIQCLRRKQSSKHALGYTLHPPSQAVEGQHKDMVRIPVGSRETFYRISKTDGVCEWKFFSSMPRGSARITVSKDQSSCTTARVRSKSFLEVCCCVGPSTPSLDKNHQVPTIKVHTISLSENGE
# [12] = target: T5, alpha 1A/C receptor (Glycine 43 / Isoleucine 200) (Homo sapiens, UniProt P35348, C347R/Q431E); experiment: R-SAT functional assay, alpha 1A/C receptor wild type; assay type: cell-based; settings: read-out: Ave −Log EC50 (converted)
# T5 construct: expressed in transfected cells; host or cells: NIH-3T3
# T5 sequence (P35348 1-464 C347R/Q431E): T4 sequence (P35348 1-464 I200S/C347R/Q431E) with S200I
# [13] = target: serotonin 2B receptor R388W (Tryptophan 388) (Homo sapiens, UniProt P41595, R388W); experiment: cell-based
# [14] = target: serotonin 2B receptor (Arginine 388) (Homo sapiens, UniProt P41595); experiment: cell-based
# [15] = target: T6, thromboxane receptor E94V (Valine 94) (Homo sapiens, UniProt P21731, E94V); experiment: R-SAT functional assay, thromboxane receptor E94V; assay type: cell-based; settings: shift in functional potency, Valine 94 vs Glutamine 94; Table 27
# T6 construct: expressed in transfected cells; host or cells: NIH-3T3
# [16] = target: T7, thromboxane receptor V80E (Glutamic Acid 80) (Homo sapiens, UniProt P21731, V80E); experiment: R-SAT functional assay, thromboxane receptor V80E; assay type: cell-based; settings: shift in functional potency, Glutamic Acid 80 vs Valine 80; Table 26
# T7 construct: expressed in transfected cells; host or cells: NIH-3T3
# [17] = target: T8, thromboxane receptor V176E (Glutamic Acid 176) (Homo sapiens, UniProt P21731, V176E); experiment: R-SAT functional assay, thromboxane receptor V176E; assay type: cell-based; settings: shift in functional potency, Glutamic Acid 176 vs Valine 176
# T8 construct: expressed in transfected cells; host or cells: NIH-3T3
# [18] = target: T9, histamine H2 receptor K231R (Arginine 231) (Homo sapiens, UniProt P25021, K231R); experiment: R-SAT functional assay, histamine H2 receptor K231R; assay type: cell-based
# T9 construct: expressed in transfected cells; host or cells: NIH-3T3
# [19] = target: T10, dopamine D1 receptor T37P (Proline 37) (Homo sapiens, UniProt P21728, T37P); experiment: R-SAT functional assay, dopamine D1 receptor T37P; assay type: cell-based; settings: Table 3
# T10 construct: expressed in transfected cells; host or cells: NIH-3T3
# [20] = target: T11, dopamine D1 receptor P79S (Serine 79) (Homo sapiens, UniProt P21728, P79S); experiment: R-SAT functional assay, dopamine D1 receptor P79S; assay type: cell-based; settings: Table 4
# T11 construct: expressed in transfected cells; host or cells: NIH-3T3
# [21] = target: dopamine D1 receptor (Threonine 37 / Proline 79 / Serine 199) (Homo sapiens, UniProt P21728); experiment: R-SAT functional assay, dopamine D1 receptor wild type; assay type: cell-based; settings: read-out: Ave −Log EC50 (converted)
# [22] = target: T12, dopamine D1 receptor S199A (Alanine 199) (Homo sapiens, UniProt P21728, S199A); experiment: R-SAT functional assay, dopamine D1 receptor S199A; assay type: cell-based; settings: Table 5
# T12 construct: expressed in transfected cells; host or cells: NIH-3T3
# [23] = target: T13, cholecystokinin B receptor L224Q (Glutamine 224) (Homo sapiens, UniProt P32239, E288K/L224Q); experiment: R-SAT functional assay, cholecystokinin B receptor L224Q; assay type: cell-based
# T13 construct: expressed in transfected cells; host or cells: NIH-3T3
# [24] = target: Neuropeptide Y1 receptor, wild type (Histidine 298) (UniProt P25929); experiment: cell-based or functional assay
# [25] = target: Neuropeptide Y1 receptor H298P variant (Proline 298) (UniProt P25929); experiment: cell-based or functional assay
# [26] = Arginine 215 (wild type), Table 10
# [27] = Lysine 231 (wild type), Table 11
# [28] = Proline 421 (L421P), inverse agonists
# [29] = Isoleucine 200 (wild type), Table 2
compound,measurement,setting,value
CN(C)CCCSC(=N)N,EC50,[1]; [26],234 nM
same,Ave −Log EC50,[1]; [27],6.63
OCCN1CCN([C@@H]2C[C@@H](c3ccc(F)cc3)c3ccc(C(F)(F)F)cc32)CC1 (racemic) [Tefludazine],EC50,[2],0.417 nM
same,EC50,[3]; [28],11.2 nM
same,FOLD,[3],27.0 fold
"CN1CCC(c2c[nH]c3ccc(O)cc23)CC1.O=C(O)/C=C\C(=O)O [BRL54443, 3-(1-Methylpiperidin-4-yl)-1H-indole-5-ol maleate]",Ave −Log EC50,[4],7.53
same,EC50,[4],29.5 nM
same,EC50,[5],174 nM
same,FOLD,[5],5.9 fold
same,EC50,[6],1480 nM
same,FOLD,[6],50 fold
CC(C)C[C@H]1C(=O)N2CCC[C@H]2[C@]2(O)O[C@](NC(=O)[C@@H]3C=C4c5cccc6[nH]c(Br)c(c56)C[C@H]4N(C)C3)(C(C)C)C(=O)N12 [Bromocriptine],EC50,[7]; Ave −Log EC50,0.447 nM and 1.66 nM
same,EC50,[8],0.295 nM
same,EC50,[9],47.9 nM
c1ccc(C2CC2)c(OCC2=NCCN2)c1 [Cirazoline],EC50,"[10]; Cysteine 43 (G43C), read-out: Ave −Log EC50 (converted)",14.5 nM
same,FOLD,"[10]; shift in functional potency, Cysteine 43 vs Glycine 43",−3.0 fold
same,EC50,[11],47.9 nM
same,FOLD,[11],3.1 fold
same,EC50,"[12]; Glycine 43 (wild type), Table 1",42.7 nM
same,EC50,[12]; [29],15.5 nM
OCCN1CCN(CC/C=C2/c3ccccc3Sc3ccc(C(F)(F)F)cc32)CC1 [Cis-flupenthixol],Ave −Log EC50,[2],8.05
same,Ave −Log EC50,[3]; [28],7.61
same,FOLD,[3],2.8 fold
"CN1C[C@H](C(=O)N[C@]2(C)O[C@@]3(O)[C@@H]4CCCN4C(=O)[C@H](Cc4ccccc4)N3C2=O)C[C@@H]2c3cccc4[nH]cc(c34)C[C@H]21 [Dihydroergotamine, dihydroergotamine]",EC50,[13],1.17 nM
same,FOLD,[13],2.5 fold
same,EC50,[7]; Ave −Log EC50,0.0513 nM and 0.269 nM
same,EC50,[8],0.0513 nM
same,FOLD,[8],−5.2 fold
same,EC50,[9],24.5 nM
same,FOLD,[9],479 fold
same,EC50,[14],0.0933 nM
CC(CCc1ccc(O)cc1)NCCc1ccc(O)c(O)c1 (stereo not drawn) [Dobutamine],EC50,[11],2140 nM
same,FOLD,[11],3.9 fold
same,EC50,[12]; [29],550 nM
OCCN1CCN(CCCN2c3ccccc3Sc3ccc(C(F)(F)F)cc32)CC1 [Fluphenazine],EC50,[2],6.76 nM
same,EC50,[3]; [28],38.9 nM
same,FOLD,[3],5.8 fold
O=C(O)CCC/C=C\C[C@@H]1[C@@H](/C=C/[C@@H](O)COc2ccc(I)cc2)[C@H]2CC[C@@H]1O2 [I-BOP],FOLD,[15],3.5 fold
same,FOLD,[16],93 fold
same,FOLD,[17],13 fold
CN1C[C@@H](NS(=O)(=O)N(C)C)C[C@@H]2c3cccc4c3c(cn4C)C[C@H]21 [Mesulergine],EC50,"[7]; Leucine 40 (wild type), Table 6, read-out: Ave −Log EC50 (converted)",3.55 nM
same,EC50,"[7]; Valine 208 (wild type), Table 7, read-out: Ave −Log EC50 (converted)",6.92 nM
same,EC50,"[8]; Leucine 208 (V208L), Table 7, read-out: Ave −Log EC50 (converted)",2.14 nM
CNCCC=C1c2ccccc2CCc2ccccc21 [Nortryptiline],EC50,"[14]; Arginine 388 (wild type), Table 19, read-out: Ave −Log EC50 (converted)",39.8 nM
COc1ccc(C2CNC(=O)C2)cc1OC1CCCC1 (stereo not drawn) [ROLIPRAM],EC50,[1]; [26],437 nM
same,Ave −Log EC50,[1]; [27],6.36
same,EC50,[18],692 nM
same,FOLD,[18],1.6 fold
"CN1CCc2c(cc(O)c(O)c2Cl)C(c2ccccc2)C1 (stereo not drawn) [SKF82957, R(+)-6-Chloro-7,8-dihydroxy-3-methyl-1-phenyl-2,3,4,5-tetrahydro-1H-3-benzazapine hydrobromide]",EC50,"[19]; Proline 37 (T37P), read-out: Ave −Log EC50 (converted)",955 nM
same,FOLD,"[19]; shift in functional potency, Proline 37 vs Threonine 37",11 fold
same,EC50,"[20]; Serine 79 (P79S), read-out: Ave −Log EC50 (converted)",4570 nM
same,FOLD,"[20]; shift in functional potency, Serine 79 vs Proline 79",132 fold
same,EC50,"[21]; Proline 79 (wild type), Table 4",34.7 nM
same,EC50,"[21]; Serine 199 (wild type), Table 5",91.2 nM
same,EC50,"[21]; Threonine 37 (wild type), Table 3",91.2 nM
same,EC50,"[22]; Alanine 199 (S199A), read-out: Ave −Log EC50 (converted)",955 nM
same,FOLD,"[22]; shift in functional potency, Alanine 199 vs Serine 199",11 fold
CN1CCN(CC/C=C2/c3ccccc3Sc3ccc(S(=O)(=O)N(C)C)cc32)CC1 [Thiothixene],EC50,[2],6.92 nM
same,EC50,[3]; [28],21.9 nM
same,FOLD,[3],3.2 fold
CCCCC[C@H](O)/C=C/[C@@H]1[C@@H](C/C=C\CCCC(=O)O)[C@H]2CO[C@@H]1C2 [U46619],FOLD,[15],6.0 fold
same,FOLD,[16],63 fold
same,FOLD,[17],5 fold
ANTHAMINE,Ave −Log EC50,[1]; [26],7.81
same,Ave −Log EC50,[1]; [27],7.82
same,Ave −Log EC50,"[18]; Arginine 231 (K231R), agonists and inverse agonists, Table 11",7.29
CCK-4,FOLD,[23],−12.0 fold
CCK-8-Sulfated,FOLD,[23],−3.0 fold
Leu/Pro NPY (from UniProt P01303 29-97) (peptide),"Ave -Log EC50, R-SAT functional potency",[24],7.5 -log EC50
PEPTIDE YY (HUMAN) (from UniProt P10082 29-64),"Ave -Log EC50, R-SAT functional potency",[25],6.91 -log EC50
same,FOLD (shift in functional potency against wild type),[25],1070 fold
same,"Ave -Log EC50, R-SAT functional potency",[24],9.94 -log EC50
